# Data reported in patent US20210386367A1, “DEVICES AND SYSTEMS FOR GASTROINTESTINAL MICROBIOME DETECTION AND MANIPULATION” (Progenity, Inc., priority 2018, published 2021).
# “And” between values parts separate entries of the source, which are not always exact repeats. Identical values can stand only once. “Also recorded” adds a separate entry of the source. Like-named read-outs stand apart in the source and are kept apart here.
# What was measured:
# Format in all cases: cell-based
# [1] = system: Bacteroides fragilis clinical isolates; assay: MIC distribution against clinical isolates
# Summary of the method: (§1)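 MIC is the lowest agent concentration preventing growth, determined by broth or agar dilution with serial compound dilutions and incubation under appropriate conditions (e.g., overnight at 37° C.). MIC90 is the concentration inhibiting ≥90% of isolates in the test population.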
# [2] = system: Streptococcus agalactiae clinical isolates; assay: MIC distribution against clinical isolates; settings: 20 S. agalactiae isolates
# Summary of the method: as §1
# Klebsiella spp. = assay: Broth microdilution MIC, 50 clinical isolates (20 K. oxytoca, 30 K. pneumoniae); settings: for MIC50: read-out: MIC50
# Protocol: Minimal inhibitory concentration (MIC) values were determined by broth microdilution or agar dilution in accordance with guidelines from the Clinical and Laboratory Standards Institute (CLSI; (1) “Methods for Dilution Antimicrobial Susceptibility Tests for Bacteria That Grow Aerobically; Approved Standard; 11th ed.” CLSI standard M07-A11, 2018; (2) “Performance Standards for Antimicrobial Susceptibility Testing; Twenty-Eighth Informational Supplement,” CLSI document M100-S28, 2018; and (3) “Methods for Antimicrobial Susceptibility Testing of Anaerobic Bacteria; Approved Standard—Eighth Edition,” CLSI document M11-A8, 2012).
# Tested aerobically by broth microdilution: • Escherichia coli, n=50 • Klebsiella spp., n=50 • Pseudomonas aeruginosa, n=50 • Streptococcus spp., n=50 • Staphylococcus aureus, n=50 • Enterococcus faecalis, n=50 • Enterobacter aerogenes, n=50 • Proteus mirabilis, n=50
# Broth microdilution testing of aerobic bacteria was conducted in cation-adjusted Mueller Hinton broth (MHBII). For testing streptococci, lysed horse blood (LHB) was added to MHBII broth at a final concentration of 3%. Where LHB was used, it was added after filtering.
# Broth microdilution susceptibility testing in 96-well microplates was conducted in accordance with CLSI methods (1) and (2). Automated liquid handlers were used to conduct serial dilutions and liquid transfers, including the Multidrop 384 (Labsystems, Helsinki, Finland), Biomek 2000, and the Biomek FX (Beckman Coulter, Fullerton, Calif.). All wells in columns 2 through 12 of a standard 96-well microdilution plate (Costar 3795) were filled with 150 μL of the appropriate diluent. Then, 300 μL of the test agents were added to the wells of column 1 of the plates at 100× the highest final concentration to be tested. Serial two-fold dilutions were made across the rows through column 11 using the Biomek 2000. The wells of column 12 contained no drug and served as the growth control wells. This plate served as the “mother plate” from which MIC assay plates or “daughter plates” were made.
# The daughter plates were loaded with 190 μL per well of the appropriate medium using the Multidrop 384. The daughter plates were created using the Biomek FX which transferred 2 μL of drug solution from each well of a mother plate to each corresponding well of the daughter plate in a single step. A standardized inoculum of each test organism was prepared per CLSI methods (1) to equal a 0.5 McFarland standard, followed by a dilution of 1:20 for aerobes and 1:10 for anaerobes. The plates were then inoculated with 10 μL of the diluted inoculum using the Biomek 2000 from low to high drug concentration, resulting in a final concentration of approximately 5×10^5 CFU/mL per well. An un-inoculated plate was incubated in parallel for each medium for the purpose of assessing solubility of the drug in the test media.
# Inoculated plates were stacked 3 or 4 high, covered with a sterile lid on the top plate, placed into boxes with CO2 planchets (streptococci) or plastic bags (all other isolates). Plates were incubated at 35° C. for 16-24 hr in ambient air for aerobes or for 42-48 hr in the anaerobic environment of the Bactron II anaerobe chamber (Sheldon Manufacturing Co.; Cornelius, Oreg.). Following incubation, the microplates were removed from the incubator and viewed from the bottom using a plate viewer. The MIC values were read and recorded as the lowest concentration of drug that inhibited visible growth of the organism as per CLSI methods (1) and (2).
# [3] = system: Bacteroides non fragilis clinical isolates; assay: MIC distribution against clinical isolates; settings: 29 Bacteroides non-fragilis isolates
# [4] = system: Prevotella spp. clinical isolates; assay: MIC distribution against clinical isolates
# [5] = MIC 1 μg/mL, 30 B. fragilis isolates
# [6] = MIC 8 μg/mL, 30 B. fragilis isolates
# [7] = MIC >8 μg/mL, 30 B. fragilis isolates
# [8] = MIC 0.015 μg/mL, 30 Prevotella spp. isolates
# [9] = MIC 0.03 μg/mL, 30 Prevotella spp. isolates
# [10] = MIC 0.06 μg/mL, 30 Prevotella spp. isolates
# [11] = MIC ≤0.008 μg/mL, 30 Prevotella spp. isolates
# [12] = MIC 16 μg/mL, 30 B. fragilis isolates
# [13] = MIC 32 μg/mL, 30 B. fragilis isolates
# [14] = MIC 64 μg/mL, 30 B. fragilis isolates
# [15] = MIC 0.5 μg/mL, 30 Prevotella spp. isolates
# [16] = MIC 4 μg/mL, 30 Prevotella spp. isolates
# [17] = MIC 8 μg/mL, 30 Prevotella spp. isolates
# [18] = MIC 16 μg/mL, 30 Prevotella spp. isolates
# [19] = MIC 32 μg/mL, 30 Prevotella spp. isolates
# [20] = MIC 64 μg/mL, 30 Prevotella spp. isolates
smiles,measurement,setting,value
C[C@@H](O)[C@H]1C(=O)N2C(C(=O)O)=C(S[C@@H]3CN[C@H](C(=O)N(C)C)C3)[C@H](C)[C@H]12 [meropenem],Cumulative percentage of isolates inhibited at MIC,[1]; [5],80.0%
same,Number of test isolates at MIC,[1]; [5],4
same,Cumulative percentage of isolates inhibited at MIC,[1]; [6],83.3%
same,Number of test isolates at MIC,[1]; [6],1
same,Cumulative percentage of isolates inhibited at MIC,[1]; [7],100.0%
same,Number of test isolates at MIC,[1]; [7],5
same,Cumulative percentage of isolates inhibited at MIC,[2]; MIC 0.015 μg/mL,20.0%
same,Number of test isolates at MIC,[2]; MIC 0.015 μg/mL,4
same,Cumulative percentage of isolates inhibited at MIC,[2]; MIC 0.03 μg/mL,95.0%
same,Number of test isolates at MIC,[2]; MIC 0.03 μg/mL,15
same,Cumulative percentage of isolates inhibited at MIC,[2]; MIC 0.06 μg/mL,100.0%
same,Number of test isolates at MIC,[2]; MIC 0.06 μg/mL,1
same,% R,Klebsiella spp.,Sixteen
same,% S,Klebsiella spp.,84%
same,Mode,Klebsiella spp.,0.015 µg/mL
same,relative activity among drugs tested,Klebsiella spp.,most active drug evaluated; also recorded: MIC50 value for meropenem was the lowest
same,Cumulative percentage of isolates at MIC,Klebsiella spp.; 0.015 μg/mL,58.0%
same,Number of test isolates at MIC,Klebsiella spp.; 0.015 μg/mL,27
same,Cumulative percentage of isolates at MIC,Klebsiella spp.; 0.03 μg/mL,80.0%
same,Number of test isolates at MIC,Klebsiella spp.; 0.03 μg/mL,11
same,Cumulative percentage of isolates at MIC,Klebsiella spp.; 0.06 μg/mL,82.0%
same,Number of test isolates at MIC,Klebsiella spp.; 0.06 μg/mL,1
same,Cumulative percentage of isolates at MIC,Klebsiella spp.; 0.5 μg/mL,84.0%
same,Number of test isolates at MIC,Klebsiella spp.; 0.5 μg/mL,1
same,Cumulative percentage of isolates at MIC,Klebsiella spp.; 8 μg/mL,88.0%
same,Number of test isolates at MIC,Klebsiella spp.; 8 μg/mL,2
same,Cumulative percentage of isolates at MIC,Klebsiella spp.; >8 μg/mL,100.0%
same,Number of test isolates at MIC,Klebsiella spp.; >8 μg/mL,6
same,MIC50,Klebsiella spp.; Klebsiella,0.015 µg/mL
same,MIC90,"Klebsiella spp.; Klebsiella, read-out: MIC90",> 8 µg/mL
same,% R,Klebsiella spp.; listed as MEM,16%
same,MIC90,Klebsiella spp.; listed as MEM,>8 µg/mL
same,Cumulative percentage of isolates at MIC,Klebsiella spp.; ≤0.008 μg/mL,4.0%
same,Number of test isolates at MIC,Klebsiella spp.; ≤0.008 μg/mL,2
same,Cumulative percentage of isolates inhibited at MIC,[3]; MIC 0.06 μg/mL,6.9%
same,Number of test isolates at MIC,[3]; MIC 0.06 μg/mL,2
same,Cumulative percentage of isolates inhibited at MIC,[3]; MIC 0.5 μg/mL,75.9%
same,Number of test isolates at MIC,[3]; MIC 0.5 μg/mL,10
same,Cumulative percentage of isolates inhibited at MIC,[3]; MIC 1 μg/mL,82.8%
same,Number of test isolates at MIC,[3]; MIC 1 μg/mL,2
same,Cumulative percentage of isolates inhibited at MIC,[3]; MIC 2 μg/mL,93.1%
same,Number of test isolates at MIC,[3]; MIC 2 μg/mL,3
same,Cumulative percentage of isolates inhibited at MIC,[3]; MIC 4 μg/mL,96.6%
same,Number of test isolates at MIC,[3]; MIC 4 μg/mL,1
same,Cumulative percentage of isolates inhibited at MIC,[3]; MIC >8 μg/mL,100.0%
same,Number of test isolates at MIC,[3]; MIC >8 μg/mL,1
same,Cumulative percentage of isolates inhibited at MIC,[4]; [8],16.7%
same,Number of test isolates at MIC,[4]; [8],3
same,Cumulative percentage of isolates inhibited at MIC,[4]; [9],36.7%
same,Number of test isolates at MIC,[4]; [9],6
same,Cumulative percentage of isolates inhibited at MIC,[4]; [10],76.7%
same,Number of test isolates at MIC,[4]; [10],12
same,Cumulative percentage of isolates inhibited at MIC,[4]; [11],6.7%
same,Number of test isolates at MIC,[4]; [11],2
CO/N=C(\C(=O)N[C@@H]1C(=O)N2C(C(=O)O)=C(CSc3nc(=O)c(=O)[nH]n3C)CS[C@H]12)c1csc(N)n1 [ceftriaxone],Cumulative percentage of isolates inhibited at MIC,[1]; [6],10.0%
same,Number of test isolates at MIC,[1]; [6],3
same,Cumulative percentage of isolates inhibited at MIC,[1]; [12],40.0%
same,Number of test isolates at MIC,[1]; [12],9
same,Cumulative percentage of isolates inhibited at MIC,[1]; [13],66.7%
same,Number of test isolates at MIC,[1]; [13],8
same,Cumulative percentage of isolates inhibited at MIC,[1]; [14],73.3%
same,Number of test isolates at MIC,[1]; [14],2
same,Cumulative percentage of isolates inhibited at MIC,[1]; listed as CTR,76.7% and 100.0%
same,Cumulative percentage of isolates inhibited at MIC,[2]; MIC 0.03 μg/mL,25.0%
same,Number of test isolates at MIC,[2]; MIC 0.03 μg/mL,5
same,Cumulative percentage of isolates inhibited at MIC,[2]; MIC 0.06 μg/mL,90.0%
same,Number of test isolates at MIC,[2]; MIC 0.06 μg/mL,1.3
same,Cumulative percentage of isolates inhibited at MIC,[2]; MIC […],100.0%
same,Number of test isolates at MIC,[2]; MIC […],2
same,% I,Klebsiella spp.,6%
same,% R,Klebsiella spp.,28%
same,% S,Klebsiella spp.,66%
same,Mode,Klebsiella spp.,0.06 µg/mL
same,Cumulative percentage of isolates at MIC,Klebsiella spp.; 0.015 μg/mL,2.0%
same,Number of test isolates at MIC,Klebsiella spp.; 0.015 μg/mL,1
same,Cumulative percentage of isolates at MIC,Klebsiella spp.; 0.03 μg/mL,12.0%
same,Number of test isolates at MIC,Klebsiella spp.; 0.03 μg/mL,5
same,Cumulative percentage of isolates at MIC,Klebsiella spp.; 0.06 μg/mL,14.0%
same,Number of test isolates at MIC,Klebsiella spp.; 0.06 μg/mL,16
same,Cumulative percentage of isolates at MIC,Klebsiella spp.; 0.5 μg/mL,64.0%
same,Number of test isolates at MIC,Klebsiella spp.; 0.5 μg/mL,1
same,Cumulative percentage of isolates at MIC,Klebsiella spp.; 1 μg/mL,66.0%
same,Number of test isolates at MIC,Klebsiella spp.; 1 μg/mL,1
same,Cumulative percentage of isolates at MIC,Klebsiella spp.; 2 μg/mL,72.0%
same,Number of test isolates at MIC,Klebsiella spp.; 2 μg/mL,3
same,Cumulative percentage of isolates at MIC,Klebsiella spp.; 8 μg/mL,76.0%
same,Number of test isolates at MIC,Klebsiella spp.; 8 μg/mL,2
same,Cumulative percentage of isolates at MIC,Klebsiella spp.; 32 μg/mL,80.0%
same,Number of test isolates at MIC,Klebsiella spp.; 32 μg/mL,2
same,Cumulative percentage of isolates at MIC,Klebsiella spp.; >128 μg/mL,100.0%
same,Number of test isolates at MIC,Klebsiella spp.; >128 μg/mL,10
same,MIC90,Klebsiella spp.; Klebsiella,> 128 µg/mL
same,MIC50,Klebsiella spp.; Klebsiella,0.12 µg/mL
same,% I,Klebsiella spp.; listed as CTR,6%
same,% R,Klebsiella spp.; listed as CTR,28%
same,MIC90,Klebsiella spp.; listed as CTR,>128 µg/mL
same,Cumulative percentage of isolates inhibited at MIC,[3]; MIC 1 μg/mL,3.4%
same,Number of test isolates at MIC,[3]; MIC 1 μg/mL,1
same,Cumulative percentage of isolates inhibited at MIC,[3]; MIC 2 μg/mL,6.9%
same,Number of test isolates at MIC,[3]; MIC 2 μg/mL,1
same,Cumulative percentage of isolates inhibited at MIC,[3]; MIC 4 μg/mL,13.8%
same,Number of test isolates at MIC,[3]; MIC 4 μg/mL,2
same,Cumulative percentage of isolates inhibited at MIC,[3]; MIC 16 μg/mL,24.1%
same,Number of test isolates at MIC,[3]; MIC 16 μg/mL,3
same,Cumulative percentage of isolates inhibited at MIC,[3]; MIC 32 μg/mL,27.6%
same,Number of test isolates at MIC,[3]; MIC 32 μg/mL,1
same,Cumulative percentage of isolates inhibited at MIC,[3]; MIC 64 μg/mL,34.5%
same,Number of test isolates at MIC,[3]; MIC 64 μg/mL,2
same,Cumulative percentage of isolates inhibited at MIC,[4],100.0%
same,Number of test isolates at MIC,[4],3
same,Cumulative percentage of isolates inhibited at MIC,[4]; [15],20.0%
same,Number of test isolates at MIC,[4]; [15],1
same,Cumulative percentage of isolates inhibited at MIC,[4]; [16],33.3%
same,Number of test isolates at MIC,[4]; [16],4
same,Cumulative percentage of isolates inhibited at MIC,[4]; [17],36.7%
same,Number of test isolates at MIC,[4]; [17],1
same,Cumulative percentage of isolates inhibited at MIC,[4]; [18],46.7%
same,Number of test isolates at MIC,[4]; [18],3
same,Cumulative percentage of isolates inhibited at MIC,[4]; [19],66.7%
same,Number of test isolates at MIC,[4]; [19],6
same,Cumulative percentage of isolates inhibited at MIC,[4]; [20],90.0%
same,Number of test isolates at MIC,[4]; [20],7
